{
  "source": "EPA's ToxValDB 9.5 (doi:10.2903/j.efsa.2015.3958)",
  "key": {"Hypoaspis aculeifer": {"test_system": "Hypoaspis aculeifer", "conditions": "acute; duration: 14 days"}, "Daphnia magna": {"test_system": "Daphnia magna", "conditions": "chronic/long-term; duration: 21 days; reproduction"}, "Folsomia candida": {"test_system": "Folsomia candida", "conditions": "chronic/long-term; duration: 28 days"}, "Apis mellifera": {"test_system": "Apis mellifera", "conditions": "acute; oral; unspecified; mortality"}, "Pimephales promelas": {"test_system": "Pimephales promelas", "conditions": "chronic/long-term; duration: 32 days; growth"}},
  "data": [
    {"smiles": "COc1nc(C)nc(NC(=O)NS(=O)(=O)c2ccccc2OCCCl)n1", "note": "[Triasulfuron]", "values": [
      {"measurement": "NOEC", "setting": "Hypoaspis aculeifer", "value": 100, "unit": "mg/kg"},
      {"measurement": "LD50", "setting": "Rattus norvegicus; acute, mortality", "value": "> 5000", "unit": "mg/kg"},
      {"measurement": "NOAEL", "setting": "Rattus norvegicus; chronic", "value": 50, "unit": "mg/kg-day"},
      {"measurement": "LC50", "setting": "Colinus virginianus; acute, oral, diet, mortality", "value": "> 5000", "unit": "mg/kg"},
      {"measurement": "LD50", "setting": "Colinus virginianus; acute, oral, mortality", "value": "> 2150", "unit": "mg/kg"},
      {"measurement": "NOEL", "setting": "Colinus virginianus; reproduction developmental", "value": 94, "unit": "mg/kg-day"},
      {"measurement": "NOEC", "setting": "Daphnia magna", "value": 10, "unit": "mg/L"},
      {"measurement": "LC50", "setting": "Tagia sp.; acute, duration: 14 days, mortality", "value": "> 1000", "unit": "mg/kg"},
      {"measurement": "NOEC", "setting": "Tagia sp.; chronic/long-term, duration: 8 weeks", "value": 50.8, "unit": "mg/kg"},
      {"measurement": "NOEC", "setting": "Folsomia candida", "value": 100, "unit": "mg/kg"},
      {"measurement": "LD50", "setting": "Apis mellifera", "value": "> 100", "unit": "µg/piece"},
      {"measurement": "NOEC", "setting": "Pimephales promelas", "value": 36.6, "unit": "mg/L"}
    ]}
  ]
}
